Test results taken from patent publication US10745401B2, “Condensed lactam derivative” (Sumitomo Dainippon Pharma Co., Ltd., priority 2018, dated 2020).

Columns and labels:
human D2 receptor = human D2 receptor (Homo sapiens (Human), UniProt P14416); assay: Test 1: binding activity for human D2 receptor ([3H]Spiperone, CHO cell membrane fraction); details: human D2 receptor, [3H]Spiperone
How it was run: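 Compound displacement of [3H]ketanserin at 5-HT2A or [3H]spiperone at D2 was measured in CHO membrane fractions after 60 min at room temperature, with filtration and scintillation counting. IC50 was converted to Ki by Cheng–Prusoff using ligand concentration and Kd from saturation binding.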

hERG channel = hERG channel (Homo sapiens (Human), UniProt Q12809); assay: Test 6-1: inhibitory activity for hERG channel (auto patch clamp, Qpatch); format: cell-based; details: whole cell auto patch clamp, hERG-CHO cells; read-out: hERG inhibition IC50
Chain of hERG channel (Q12809 whole entry): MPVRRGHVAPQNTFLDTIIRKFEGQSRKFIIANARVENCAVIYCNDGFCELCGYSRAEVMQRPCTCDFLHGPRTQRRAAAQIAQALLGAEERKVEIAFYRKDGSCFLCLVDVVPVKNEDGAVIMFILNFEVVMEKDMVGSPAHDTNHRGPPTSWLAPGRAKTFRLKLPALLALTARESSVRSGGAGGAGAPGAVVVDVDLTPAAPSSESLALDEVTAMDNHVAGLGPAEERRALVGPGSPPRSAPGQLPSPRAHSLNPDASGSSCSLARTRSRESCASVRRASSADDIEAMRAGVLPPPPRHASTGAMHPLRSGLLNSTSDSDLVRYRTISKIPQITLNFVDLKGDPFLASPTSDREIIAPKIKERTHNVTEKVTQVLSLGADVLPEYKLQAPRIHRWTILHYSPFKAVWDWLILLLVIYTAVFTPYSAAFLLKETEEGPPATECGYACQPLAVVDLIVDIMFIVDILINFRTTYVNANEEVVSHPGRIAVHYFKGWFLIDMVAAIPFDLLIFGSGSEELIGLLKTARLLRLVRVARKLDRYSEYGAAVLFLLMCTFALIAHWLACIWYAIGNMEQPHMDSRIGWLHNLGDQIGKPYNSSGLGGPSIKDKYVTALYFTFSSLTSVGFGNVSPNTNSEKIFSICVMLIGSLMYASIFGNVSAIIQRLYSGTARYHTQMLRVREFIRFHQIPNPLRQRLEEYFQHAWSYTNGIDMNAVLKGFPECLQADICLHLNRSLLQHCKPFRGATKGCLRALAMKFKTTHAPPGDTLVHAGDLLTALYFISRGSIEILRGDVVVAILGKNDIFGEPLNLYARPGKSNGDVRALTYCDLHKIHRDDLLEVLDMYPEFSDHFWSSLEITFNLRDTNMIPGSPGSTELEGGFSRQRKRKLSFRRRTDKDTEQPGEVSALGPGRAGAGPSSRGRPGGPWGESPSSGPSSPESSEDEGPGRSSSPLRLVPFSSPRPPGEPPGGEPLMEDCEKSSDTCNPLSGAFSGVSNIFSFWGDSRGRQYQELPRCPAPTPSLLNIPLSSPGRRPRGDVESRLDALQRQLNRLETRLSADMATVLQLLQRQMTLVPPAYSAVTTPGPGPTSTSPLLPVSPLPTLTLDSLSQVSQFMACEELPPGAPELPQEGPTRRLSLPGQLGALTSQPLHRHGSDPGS
How it was run: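 Whole-cell patch clamp on an automated system using CHO cells stably expressing human hERG (IKr); 15 s pulse interval. Four increasing compound concentrations applied cumulatively; mean peak tail current from last 3 stimulations per concentration used. IC50 from inhibition versus pre-compound current, fitted by Hill equation.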

human 5-HT1A receptor [1] = biological target: T1, human 5-HT1A receptor (Homo sapiens (Human), UniProt P08908); assay: Test 2: agonist activity for human 5-HT1A receptor ([35S]GTPγS binding); format: biochemical; details: for EC50: [35S]GTPγS binding, concentration at which half the activity of Emax was obtained; for Emax at 10 µM: agonist activity in the presence of 10 μM of compound, relative to 100 μmol/L 5-HT
T1 sequence (P08908 whole entry): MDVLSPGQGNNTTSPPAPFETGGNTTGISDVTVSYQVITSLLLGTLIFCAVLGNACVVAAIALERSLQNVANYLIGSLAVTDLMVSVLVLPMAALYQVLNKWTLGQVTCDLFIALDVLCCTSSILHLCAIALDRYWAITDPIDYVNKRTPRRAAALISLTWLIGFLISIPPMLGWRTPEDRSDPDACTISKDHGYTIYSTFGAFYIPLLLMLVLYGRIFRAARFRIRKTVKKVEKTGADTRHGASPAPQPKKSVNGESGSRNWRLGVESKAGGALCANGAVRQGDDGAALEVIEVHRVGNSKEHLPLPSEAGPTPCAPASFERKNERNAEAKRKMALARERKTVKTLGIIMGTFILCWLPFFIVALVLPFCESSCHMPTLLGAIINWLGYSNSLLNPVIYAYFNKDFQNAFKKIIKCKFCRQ
How it was run: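 [35S]GTPγS binding read-out: after 60 min at room temperature with test compound in GDP buffer, human 5-HT1A receptor CHO membranes were vacuum-filtered and retained radioactivity scintillation-counted. Agonist activity calculated by formula.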

[2] = Test 4: metabolic stability test in human hepatic microsome; format: in vitro ADME; details: 0.1 mg/mL microsome, 0.1 μmol/L compound, 37° C., 30 minutes
How it was run: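 LC-MS quantified remaining parent after 30 min, 37° C, in pH 7.4 25 mmol/L phosphate containing 0.1 mg/mL human hepatic microsomes, 3.2 mmol/L NADPH and 0.1 μmol/L test compound. Value given as −LN(residual ratio)/30/0.1, mL/min/mg protein.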

human 5-HT1A receptor [3] = biological target: T1, human 5-HT1A receptor; assay: Test 1: binding activity for human 5-HT1A receptor ([3H]8-OH-DPAT, CHO cell membrane fraction)
How it was run: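 Membranes incubated with [3H]8-OH-DPAT and compound for 60 min at room temperature, then filtered on polyethylenimine-coated glass-fibre plates and counted by liquid scintillation. IC50 from Hill analysis; Ki = IC50/(1+S/Kd), Kd from saturation binding on the same membranes.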

Chain of human D2 receptor (P14416 whole entry): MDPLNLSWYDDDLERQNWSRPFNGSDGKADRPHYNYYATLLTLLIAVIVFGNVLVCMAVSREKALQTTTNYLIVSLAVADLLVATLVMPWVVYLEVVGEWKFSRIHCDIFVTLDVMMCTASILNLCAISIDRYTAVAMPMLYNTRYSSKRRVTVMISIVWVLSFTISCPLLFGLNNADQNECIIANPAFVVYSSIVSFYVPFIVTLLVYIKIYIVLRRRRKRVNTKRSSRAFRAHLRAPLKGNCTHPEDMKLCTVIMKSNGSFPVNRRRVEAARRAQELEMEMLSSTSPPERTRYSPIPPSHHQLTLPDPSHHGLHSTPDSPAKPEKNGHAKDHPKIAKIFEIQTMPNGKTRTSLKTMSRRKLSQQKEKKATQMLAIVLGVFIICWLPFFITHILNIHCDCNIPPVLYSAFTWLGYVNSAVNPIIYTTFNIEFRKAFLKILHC

Row | SMILES | Ki (human D2 receptor) [µM] | IC50 (hERG channel) [µM] | EC50 (human 5-HT1A receptor [1]) [µM] | Emax at 10 µM (human 5-HT1A receptor [1]) [%] | Metabolic stability in human hepatic microsome [2] [mL/min/mg protein] | Ki (human 5-HT1A receptor [3]) [µM]
1 | CC(C)n1cc2c(n1)CCN(CCN1CCN(c3nsc4ccccc34)CC1)C2=O [Example 162] | 0.508 | 1.2 | 0.055 | 61 | 0.196 | 0.0138
2 | Cc1nc2c(o1)CCN(CCN1CCC(c3noc4ccccc34)CC1)C2=O [Example 39] | 1.86 | 1.8 | 0.00906 | 61 | 0.016 | 0.00084
3 | Cc1cc2c(n1C)CCCN(CCN1CCC(c3noc4ccccc34)CC1)C2=O [Example 166] | 0.139 | 1 | 0.00622 | 57 | <0.05 | 0.00017
4 | Cn1ncc2c1CCN(CCN1CCC(c3noc4ccccc34)CC1)C2=O [Example 130] | 0.541 | 1.6 | 0.841 | 44 | <0.05 | 0.0238
5 | Cn1cnc2c1C(=O)N(CCN1CCN(c3nsc4ccccc34)CC1)CCC2 [Example 55] | 0.697 | > 10 | 0.0043 | 50 | 0.161 | 0.0136
6 | Cn1cc2c(n1)C(=O)N(CCN1CCN(c3nsc4ccccc34)CC1)CC2 [Example 50] | 0.825 | 8.5 | 0.00514 | 59 | 0.038 | 0.00125
7 | COc1ncc2c(n1)CCN(CCN1CCC(c3noc4ccccc34)CC1)C2=O [Example 176] | 0.248 | 1 | 0.0306 | 40 | <0.05 | 0.0051
8 | Cc1nc(C)c2c(=O)n(CCN3CCC(c4noc5ccccc45)CC3)ccc2n1 [Example 114, 6-{2-[4-(1,2-Benzoisoxazol-3-yl)piperidin-1-yl]ethyl}-2,4-dimethylpyrido[4,3-d]pyrimidin-5(6H)-one] | 0.309 | 2.7 | 0.0438 | 64 | 0.102 | 0.0113
9 | Cc1nn(C)c2c1C(=O)N(CCN1CCN(c3nsc4ccccc34)CC1)CC2 [Example 105, 5-{2-[4-(1,2-Benzoisothiazol-3-yl)piperazin-1-yl]ethyl}-1,3-dimethyl-1,5,6,7-tetrahydro-4H-pyrazolo[4,3-c]pyridin-4-one] | 0.194 | 7.9 | 0.014 | 74 | 0.101 | 0.006
10 | CC(C)c1nc2c(o1)C(=O)N(CCN1CCN(c3nsc4ccccc34)CC1)CC2 [Example 66] | 0.841 | 2.1 | 0.0782 | 67 | 0.357 | 0.00868
11 | COc1c2c(nn1C)CCN(CCN1CCN(c3nsc4ccccc34)CC1)C2=O [Example 106, 5-{2-[4-(1,2-Benzoisothiazol-3-yl)piperazin-1-yl]ethyl}-3-methoxy-2-methyl-2,5,6,7-tetrahydro-4H-pyrazolo[4,3-c]pyridin-4-one] | 0.804 | 4.8 | 0.0384 | 74 | 0.244 | 0.00163
12 | O=C1c2[nH]ncc2CCN1CCN1CCC(c2noc3ccccc23)CC1 [Example 98, 6-{2-[4-(1,2-Benzoisoxazol-3-yl)piperidin-1-yl]ethyl}-1,4,5,6-tetrahydro-7H-pyrazolo[3,4-c]pyridin-7-one] | 0.312 | 1.1 | 0.755 | 43 | 0.013 | 0.0116
13 | Cc1ncc2c(n1)CCN(CCN1CCN(c3nsc4ccccc34)CC1)C2=O [Example 90] | 1.07 | > 10 | 0.0577 | 65 | 0.070 | 0.00677
14 | Cc1noc2ccn(CCN3CCC(c4noc5ccccc45)CC3)c(=O)c12 [Example 132] | 0.75 | 0.7 | 0.0745 | 59 | 0.148 | 0.016
15 | Cc1cc2c(n1C)CCCN(CCN1CCN(c3nsc4ccccc34)CC1)C2=O [Example 167] | 0.071 | 1.8 | 0.00084 | 60 | 0.413 | 0.00014
16 | Cc1cncc2c1CCN(CCN1CCC(c3noc4ccccc34)CC1)C2=O [Example 138] | 0.076 | 1.2 | 0.1 | 32 | 0.083 | 0.0276
17 | Cc1nc(C)c2c(n1)CCN(CCN1CCC(c3noc4ccccc34)CC1)C2=O [Example 139] | 0.635 | 3.8 | 0.0727 | 48 | <0.05 | 0.0203
18 | O=C1c2nc(F)ccc2CCN1CCN1CCC(c2noc3ccccc23)CC1 [Example 188, 7-{2-[4-(1,2-Benzoisoxazol-3-yl)piperidin-1-yl]ethyl}-2-fluoro-6,7-dihydro-1,7-naphthyridin-8(5H)-one] | 0.703 | 1.9 | 0.0826 | 53 | <0.05 | 0.00785
19 | Cn1nc2c(c1C(F)(F)F)C(=O)N(CCN1CCN(c3nsc4ccccc34)CC1)CC2 [Example 78] | 0.343 | 5.5 | 0.00077 | 66 | 0.459 | 0.00046
20 | Cc1ccc2c(n1)C(=O)N(CCN1CCN(c3noc4ccccc34)CC1)CC2 [Example 183] | > 10 | > 3 | 0.308 | 44 | <0.05 | 0.0219
21 | Cc1nccc2c1C(=O)N(CCN1CCN(c3noc4ccccc34)CC1)CC2 [Example 85] | 1.07 | > 10 | 0.0411 | 35 | 0.046 | 0.101
22 | Cn1ncc2c1CCCN(CCN1CCN(c3nsc4ccccc34)CC1)C2=O [Example 44] | 0.121 | 7.7 | 0.0018 | 76 | 0.04 | 0.00022
